The values below come from publication PMC3388044, “Probing of Exosites Leads to Novel Inhibitor Scaffolds of HCV NS3/4A Proteinase” (PLoS ONE, 2012).

The target of this experiment is T1, HCV NS3/4A (wild-type) (Hepatitis C virus genotype 1b, UniProt O92972).
T1 construct: The NS3/4A construct represented the individual NS3 proteinase domain N-terminally fused with an NS4A co-factor; 6xHis; purchased AnaSpec (Fremont, CA)
The experiment in a line: NS3/4A activity assay with FRET peptide substrate, wild-type enzyme. In kind it is biochemical, HCV genotype 1b, strain HC-J4. Particulars: wild-type NS3/4A 10 nM, Ac-DE-D(Edans)-EE-Abu-ψ-[COO]-AS-K(Dabsyl)-NH2 10 µM, 30 min pre-incubation; read-out: NS3/4A IC50. The text has this: Reagents were purchased from Sigma unless indicated otherwise. The FRET substrate Ac-DE-D(Edans)-EE-Abu-ψ-[COO]-AS-K(Dabsyl)-NH2, purified recombinant wild-type NS3/4A from HCV genotype 1b, strain HC-J4, and the mutants with the V36M, R155K, A156T, D168A and V170A resistance mutations were from AnaSpec (Fremont, CA). The NS3/4A construct represented the individual NS3 proteinase domain N-terminally fused with an NS4A co-factor and tagged with a 6xHis tag. NS3/4A was in active form and the pre-activation by pep-4A or pep4AK was not necessary. Pyroglutamic acid-Arg-Thr-Lys-Arg-7-amino-4-methylcoumarin was from Peptides International (Louisville, KY). West Nile virus NS2B-NS3 proteinase (strain NY99) was expressed, purified and refolded to restore its functional activity as described earlier. The pET15b-Den2-CF40-Gly-NS3pro 185 plasmid encoding the Dengue virus type 2 NS2B-NS3 protease was a kind gift of Dr. Subhash Vasudevan (Program in Emerging Infectious Diseases, DUKE-NUS Graduate Medical School, Singapore). DV NS2B-NS3 proteinase was expressed purified and refolded to restore its functional activity as described previously, [70]. The expression of the soluble C-terminally truncated human furin construct in Sf9 insect cells (an ovarian cell line from fall armyworm Spodoptera frugiperda; Invitrogen, Carlsbad, CA) infected with the recombinant baculovirus and purification of soluble furin from the medium were described earlier. Original human hepatocarcinoma Huh7 cells were obtained from ATCC (Manassas, VA).
The NS3/4A activity assay was performed at 37°C in triplicate in wells of a 96-well plate in 0.2 ml 50 mM HEPES, pH 7.5, containing 100 mM NaCl, 10 mM DTT, 20% glycerol, the Ac-DE-D(Edans)-EE-Abu-ψ-[COO]-AS-K(Dabsyl)-NH2 substrate (10 µM) and the NS3/4A enzyme (10 nM). Reaction velocity was monitored continuously at λex = 355 nm and λem = 500 nm for 10 min using a Spectramax Gemini EM fluorescence spectrophotometer (Molecular Devices, Sunnyvale, CA) and the initial rate of reaction v was recorded for each reaction. There was no significant additional absorption by compounds 1–8 we identified, which might interfere with NS3/4A assay. Compound stock solutions (10 mM) were made in 100% DMSO. Stocks were then diluted using the assay buffer. As a result, the final DMSO concentration was always below 1% in the assay reactions.
To measure the inhibitory potency of the compounds, their increasing concentrations were pre-incubated with the individual proteinases in the corresponding buffer for 30 min at ambient temperature. At least, 7–9 different concentrations were used for each inhibitor. The residual activity of the enzymes was then measured as above. The IC50 values of the inhibitory compounds were calculated by determining the concentrations of the compounds needed to inhibit 50% of the enzyme activity against the peptide substrate. GraphPad Prism was used as fitting software.

T1 sequence (O92972 1027-1208): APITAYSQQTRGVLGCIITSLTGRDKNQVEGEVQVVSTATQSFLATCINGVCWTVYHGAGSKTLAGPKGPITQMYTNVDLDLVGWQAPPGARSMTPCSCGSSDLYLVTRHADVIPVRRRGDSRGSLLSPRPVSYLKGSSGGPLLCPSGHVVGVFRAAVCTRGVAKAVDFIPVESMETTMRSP

Consider `Clc1ccc(Nc2nc(SCc3ccccc3)nc3n[nH]c(Cc4nc5ccccc5s4)c23)cc1` [Compound 5], for which the IC50 turned out to be 0.38 µM.

For the compound `Cc1n[nH]c(=S)n1Nc1nc(SCc2ccccc2)nc2n[nH]c(Cc3nn[nH]n3)c12` [Compound 3], the IC50 was found to be 0.36 µM.

As for `S=c1[nH]nc(Nc2nc(SCc3ccccc3)nc3n[nH]c(Cc4nn[nH]n4)c23)s1` [Compound 6], the IC50 is 0.95 µM.

As to `Clc1ccc(OCc2nn3c(CCc4nnc5sc(COc6ccc(Cl)cc6)nn45)nnc3s2)cc1` [Compound 2], the IC50 was 0.3 µM.

For `O=C(Nc1ccccc1)c1cc(S(=O)(=O)Nc2nc3ncccc3[nH]2)c(SSc2cc(Cl)c(C(=O)Nc3ccccc3)cc2S(=O)(=O)Nc2nc3ncccc3[nH]2)cc1Cl` [Compound 1], the IC50 was 0.183 µM.
